These results are taken from patent US20230146675A1, “PYRIMIDO[5,4-d]PYRIMIDINE DERIVATIVES AS ENT INHIBITORS FOR THE TREATMENT OF CANCERS, AND COMBINATION THEREOF WITH ADENOSINE RECEPTOR ANTAGONISTS” (ITEOS BELGIUM SA, priority 2020, published 2023).

The experiment deals with T1, human ENT1 (Homo sapiens, UniProt Q99808).
T1 sequence (Q99808 1-456): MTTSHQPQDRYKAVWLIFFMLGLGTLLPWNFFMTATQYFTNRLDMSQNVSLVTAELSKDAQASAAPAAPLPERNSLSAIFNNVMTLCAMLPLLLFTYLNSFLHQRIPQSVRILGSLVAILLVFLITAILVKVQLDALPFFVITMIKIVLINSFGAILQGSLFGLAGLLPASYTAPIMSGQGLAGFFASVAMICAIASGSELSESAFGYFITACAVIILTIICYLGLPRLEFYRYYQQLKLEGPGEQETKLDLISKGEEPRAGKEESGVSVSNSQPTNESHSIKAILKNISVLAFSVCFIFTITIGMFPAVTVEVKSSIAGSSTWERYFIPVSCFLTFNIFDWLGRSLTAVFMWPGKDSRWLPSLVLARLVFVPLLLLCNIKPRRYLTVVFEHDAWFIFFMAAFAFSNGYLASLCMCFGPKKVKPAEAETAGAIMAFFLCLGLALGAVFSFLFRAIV
Kind of experiment: ENT1 binding assay (competition with Sahenta-DY647 on JAR cells). The following applies: binned IC50. Set-up: JAR cells expressing ENT1 were bought from ATCC; host or cells: JAR cells. An outline of the steps:
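JAR cells were incubated with test compounds and the fluorescent ligand Sahenta-DY647 in competition. Plates were washed twice by centrifugation (4 min, 400 rcf, 4 °C). Binding potency was derived from the final fluorescence.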
Usually IC50 stands for the point on the concentration scale where inhibition reaches its midpoint. Low readings indicate greater potency, high ones weaker potency. As for `COCCN(CCOC)c1nc(N2CCC(OC)CC2)c2nc(N(CCOC)CCOC)nc(NCCCCC#N)c2n1` [Compound 179, 5-((2,6-bis(bis(2-methoxyethyl)amino)-8-(4-methoxypiperidin-1-yl)pyrimido[5,4-d]pyrimidin-4-yl)amino)pentanenitrile], the half-maximal inhibitory concentration (IC50) was 100 to 500 nM. The compound `COCCN(CCOC)c1nc(N2CCC(OC)CC2)c2nc(N(CCOC)CCOC)nc(NCc3ccnc(N)c3)c2n1` [Compound 147, N4-((2-aminopyridin-4-yl)methyl)-N2,N2,N6,N6-tetrakis(2-methoxyethyl)-8-(4-methoxypiperidin-1-yl)pyrimido[5,4-d]pyrimidine-2,4,6-triamine] displayed an IC50 of 500 to 1000 nM. `CCCN(C)c1nc(N(CCOC)CCOC)nc2c(N3CCn4ncnc4C3)nc(N(CCOC)CCOC)nc12` [Compound 10, 8-(5,6-dihydro-[1,2,4]triazolo[1,5-a]pyrazin-7(8H)-yl)-N2,N2,N6,N6-tetrakis(2-methoxyethyl)-N4-methyl-N4-propylpyrimido[5,4-d]pyrimidine-2,4,6-triamine] displayed an IC50 of 100 to 500 nM. As to `COCCN(CCOC)c1nc(N2CCC(F)(F)C2)c2nc(N(CCOC)CCOC)nc(N3CCC(OC)CC3)c2n1` [Compound 109, 4-(3,3-difluoropyrrolidin-1-yl)-N2,N2,N6,N6-tetrakis(2-methoxyethyl)-8-(4-methoxypiperidin-1-yl)pyrimido[5,4-d]pyrimidine-2,6-diamine], the IC50 is 100 to 500 nM.

`COCCN(CCOC)c1nc(N2CCN(c3ncn(C)n3)CC2)c2nc(N(CCOC)CCOC)nc(N(C)Cc3cccc(OC)c3)c2n1` [Compound 243, N4-(3-methoxybenzyl)-N2,N2,N6,N6-tetrakis(2-methoxyethyl)-N4-methyl-8-(4-(1-methyl-1H-1,2,4-triazol-3-yl)piperazin-1-yl)pyrimido[5,4-d]pyrimidine-2,4,6-triamine] showed an IC50 below 100 nM. As for `COCCN(Cc1ccc(C(=O)O)c(OC)c1)c1nc(N2CCN(C)C(=O)C2)c2nc(N(CCOC)CCOC)nc(N3CCC(OC)CC3)c2n1` [Compound 337, 4-(((6-(bis(2-methoxyethyl)amino)-8-(4-methoxypiperidin-1-yl)-4-(4-methyl-3-oxopiperazin-1-yl)pyrimido[5,4-d]pyrimidin-2-yl)(2-methoxyethyl)amino)methyl)-2-methoxybenzoic acid], the figure is 100 to 500 nM.

`COCCN(CCOC)c1nc(N2CCOC(C)C2)c2nc(N(CCOC)CCOC)nc(N3CCC(OC)CC3)c2n1` (stereo not shown) [Compound 87, N2,N2,N6,N6-tetrakis(2-methoxyethyl)-4-(4-methoxypiperidin-1-yl)-8-(2-methylmorpholino)pyrimido[5,4-d]pyrimidine-2,6-diamine] returned an IC50 of 100 to 500 nM. As for `COCCN(CCOC)c1nc(N2CCN(C)C(=O)C2)c2nc(N(CCOC)CCOC)nc(NCc3cccc(C#N)c3)c2n1` [Compound 205, 3-(((2,6-bis(bis(2-methoxyethyl)amino)-8-(4-methyl-3-oxopiperazin-1-yl)pyrimido[5,4-d]pyrimidin-4-yl)amino)methyl)benzonitrile], the figure is below 100 nM; as for `COCCN(CCOC)c1nc(N2CCN(C(C)=O)CC2)c2nc(N(CCOC)CCOC)nc(N3CCC(OC)CC3)c2n1` [Compound 74, 1-(4-(2,6-bis(bis(2-methoxyethyl)amino)-8-(4-methoxypiperidin-1-yl)pyrimido[5,4-d]pyrimidin-4-yl)piperazin-1-yl)ethanone], 100 to 500 nM; as for `COCCN(CCOC)c1nc(N2CCC(OC)CC2)c2nc(N(CCOC)CCOC)nc(NCc3cnn(C)c3)c2n1` [Compound 65, N2,N2,N6,N6-tetrakis(2-methoxyethyl)-8-(4-methoxypiperidin-1-yl)-N4-((1-methyl-1H-pyrazol-4-yl)methyl)pyrimido[5,4-d]pyrimidine-2,4,6-triamine], 500 to 1000 nM. As for `COCCN(CCOC)c1nc(N2CCN(c3nccc(C)n3)CC2)c2nc(N(CCOC)CCOC)nc(N3CCC(OC)CC3)c2n1` [Compound 122, N2,N2,N6,N6-tetrakis(2-methoxyethyl)-4-(4-methoxypiperidin-1-yl)-8-(4-(4-methylpyrimidin-2-yl)piperazin-1-yl)pyrimido[5,4-d]pyrimidine-2,6-diamine], the figure is 100 to 500 nM; as for `COCCN(CCOC)c1nc(N2CC(O)(C(F)(F)F)C2)c2nc(N(CCOC)CCOC)nc(N3CC(O)(C(F)(F)F)C3)c2n1` [Compound 11, 1,1′-(2,6-bis(bis(2-methoxyethyl)amino)pyrimido[5,4-d]pyrimidine-4,8-diyl)bis(3-(trifluoromethyl)azetidin-3-ol)], below 100 nM; as for `COCCN(CCOC)c1nc(N2CCC(OC)CC2)c2nc(N(CCOC)CCOC)nc(N3CCOCC3)c2n1` [Compound 69, N2,N2,N6,N6-tetrakis(2-methoxyethyl)-4-(4-methoxypiperidin-1-yl)-8-morpholinopyrimido[5,4-d]pyrimidine-2,6-diamine], 500 to 1000 nM. The compound `COCCN(CCOC)c1nc(N2CCn3ncnc3C2)c2nc(N(CCOC)CCOC)nc(N3CCS(=O)(=O)CC3)c2n1` [Compound 6, 4-(2,6-bis(bis(2-methoxyethyl)amino)-8-(5,6-dihydro-[1,2,4]triazolo[1,5-a]pyrazin-7(8H)-yl)pyrimido[5,4-d]pyrimidin-4-yl)thiomorpholine 1,1-dioxide] returned an IC50 of 100 to 500 nM. In turn, `COCCN(CCOC)c1nc(N2C[C@@H](C)O[C@@H](C)C2)c2nc(N(CCOC)CCOC)nc(N3CCC(OC)CC3)c2n1` [Compound 110, 4-((2R,6S)-2,6-dimethylmorpholino)-N2,N2,N6,N6-tetrakis(2-methoxyethyl)-8-(4-methoxypiperidin-1-yl)pyrimido[5,4-d]pyrimidine-2,6-diamine] displayed an IC50 below 100 nM. In the case of `COCCN(CCOC)c1nc(N2CCN(c3ncn(C)n3)CC2)c2nc(N(CCOC)CCOC)nc(NCc3cccc(OC)c3)c2n1` [Compound 222, N4-(3-methoxybenzyl)-N2,N2,N6,N6-tetrakis(2-methoxyethyl)-8-(4-(1-methyl-1H-1,2,4-triazol-3-yl)piperazin-1-yl)pyrimido[5,4-d]pyrimidine-2,4,6-triamine], the IC50 is below 100 nM. On to `COCCN(CCOC)c1nc(N2CCC(OC)CC2)c2nc(N(CCOC)CCOC)nc(OCc3cccc(Cl)c3)c2n1` [Compound 155, 4-((3-chlorobenzyl)oxy)-N2,N2,N6,N6-tetrakis(2-methoxyethyl)-8-(4-methoxypiperidin-1-yl)pyrimido[5,4-d]pyrimidine-2,6-diamine], for which the IC50 was below 100 nM. Compound `COCCN(CCOC)c1nc(N2CCN(C)C(=O)C2)c2nc(N(CCOC)CCOC)nc(N(C)Cc3ccccc3)c2n1` [Compound 230, 4-(8-(benzyl(methyl)amino)-2,6-bis(bis(2-methoxyethyl)amino)pyrimido[5,4-d]pyrimidin-4-yl)-1-methylpiperazin-2-one] registered an IC50 below 100 nM. On to `COCCN(CCOC)c1nc(N2CCC(C(N)=O)CC2)c2nc(N(CCOC)CCOC)nc(N3CCC(OC)CC3)c2n1` [Compound 75, 1-(2,6-bis(bis(2-methoxyethyl)amino)-8-(4-methoxypiperidin-1-yl)pyrimido[5,4-d]pyrimidin-4-yl)piperidine-4-carboxamide], for which the IC50 lay in the range of 100 to 500 nM.
